Patent US12201608B2, “Methods for treating Parkinson's disease by administering resiniferatoxin” (Sorrento Therapeutics, Inc., priority 2018, dated 2025)

Legend:
[1] = system: AAV-A53T mouse model of Parkinson's Disease-like (PD) pathology; test: Fine motor gait analysis accounting for left-right asymmetry (D7 data reevaluated); type: in vivo, C57Bl/6J male mice; conditions: for maximum left-right difference of hip angle: vs AAV-A53T Vehicle
Protocol: D7 fine motor gait analysis data from the study described above was reevaluated to determine how left-right asymmetry is manifested on kinematic parameters instead of assessing changes which occur bilaterally and that are captured in the “normal” overall gait score.
Typically, both the left and right sides of an animal are assessed for test parameters and the overall score and discriminant vector is based on the average of both the left and right-side values for a particular parameter. For example, the maximum hip angle is determined by the average of the left and right-side angle and it is similar in both AAV-Null Vehicle and AAV-A53T Vehicle groups. However, as shown in FIGS. 8A-8C when the left and right side measurements of the maximum hip angle were analyzed separately, the hip angle max of AAV-A53T Vehicle treated mice is smaller on the left side (FIG. 8A) than on the right side (FIG. 8B) when compared to AAV-Null mice.
Fine motor gait analysis was performed by creating a discriminant vector using the transformed data set, where left-right difference is used instead of the average of left and right.

[2] = Adverse effects and mortality monitoring in the main AAV-A53T study; type: in vivo, C57Bl/6J male mice
Protocol: For this study, a total of 110 male C57Bl/6J mice two months of age were infused with either AAV-A53T (90 mice) or AAV-Null (20 mice) into substantia nigra unilaterally to induce PD-like pathology or to serve as sham controls, respectively. Mice infused with AAV-Null (empty) vector (“sham-infused” mice) were used in order to control for the effect of the viral infusion. After 7 or 14 days of AAV-A53T mediated disease model induction, the mice were treated with RTX (0.04 μg or 0.125 μg) (5 μL volume, prepared from a 25 μg/ml RTX solution containing Polysorbate 80 at 0.03% w/v, dextrose at 0.05% w/v, Phosphate Buffer at 30 mM, and NaCl 0.54% w/v, pH 7.2, and diluted in saline as needed) by single intrathecal infusion at lumbar spinal cord area. One AAV-Null and AAV-A53T infused group per each time point were treated with vehicle instead of RTX.
The mice were then treated with RTX or vehicle by intrathecal infusion 7 or 14 days after AAV infusion. […]
Animals were monitored daily by laboratory personnel. […]

[3] = both RTX groups, vs AAV-A53T Vehicle D7

## C=C(C)[C@]12C[C@@H](C)[C@@]34O[C@](Cc5ccccc5)(O[C@@H]1[C@@H]3C=C(COC(=O)Cc1ccc(O)c(OC)c1)C[C@]1(O)C(=O)C(C)=C[C@@H]41)O2 [RTX, Resiniferatoxin]
[1]; AAV-A53T and 0.05 μg RTX (n=14)
  maximum left-right difference of hip angle: reduction in the maximum difference
[1]; AAV-A53T and 0.124 μg RTX (n=14)
  maximum left-right difference of hip angle: reduction in the maximum difference
[1]; [3]
  hindlimb peak swing speed, left-right difference: reduced
  hindlimb swing speed, left-right difference: reduced
[1]; both RTX groups, vs AAV-A53T vehicle, p<0.05 unpaired t-test
  left-right gait difference Discriminant Vector Score: significantly lower
[1]; low and high RTX dose groups
  diagonal interlimb coordination, left-right difference: less of a a diagonal interlimb coordination difference
[2]; 6 mice out of 110 lost including vehicle-treated mice, attributed to surgical procedure and anesthesia
  mortalities, distribution between groups: evenly spread between the vehicle and both RTX low and high dose groups
[2]; low or high dose (0.04 μg or 0.125 μg), D7 or D14
  adverse effects of intrathecal RTX administration: No significant adverse effects
